# Test results from ChEMBL document CHEMBL3885861, “Open TG-GATES”.
# Organism: Rattus norvegicus
# Assay: Open TG-GATES - Regimen: Daily Repeat
# Format: toxicity, organism-based, Sprague-Dawley
# Set-up: regimen Daily Repeat, gender Male, age 6 weeks
# Conditions: in vivo, po, route gavage; for APTT / Bas / Eos / Fbg / Hb / Ht / Lym / MCH / MCHC / MCV / Mono / Neu / PT / Plat / RBC / Ret / WBC: tissue Blood; for KIDNEY_L / KIDNEY_R / KIDNEY_TOTAL: tissue Kidney; for LIVER: tissue Liver; for ALP / ALT / AST / BUN / CRE / DBIL / GLC / K / Na / PL / RALB / TBIL / TC / TG / TP / gamma-GTP: tissue Plasma
# [1] = 75 mg/kg, 72 h, dose level Middle, time 3 day
# [2] = 75 mg/kg, […], dose level Middle, time 7 day
# [3] = 75 mg/kg, […], dose level Middle, time 14 day
# [4] = 75 mg/kg, […], dose level Middle, time 28 day
# [5] = 250 mg/kg, 72 h, dose level High, time 3 day
# [6] = 250 mg/kg, […], dose level High, time 7 day
# [7] = 250 mg/kg, […], dose level High, time 14 day
# [8] = 250 mg/kg, […], dose level High, time 28 day
compound,measurement,setting,value
CN1C(=O)CN=C(c2ccccc2)c2cc(Cl)ccc21 [DIAZEPAM],TERMINAL_BW,[1],244.2 g
same,APTT,[1],16.3 s
same,Bas,[1],0%
same,Eos,[1],1.2%
same,Fbg,[1],235.6 mg/dL
same,Hb,[1],13.7 g/dL
same,Ht,[1],41.3%
same,Lym,[1],77.4%
same,MCH,[1],21.3 pg
same,MCHC,[1],33.3%
same,MCV,[1],64.1 fL
same,Mono,[1],6%
same,Neu,[1],15.8%
same,PT,[1],11.6 s
same,Plat,[1],112.9 x10_4/uL
same,RBC,[1],644 x10_4/ul
same,Ret,[1],6.3%
same,WBC,[1],129.7 x10_2/uL
same,KIDNEY_L,[1],1.1 g
same,KIDNEY_R,[1],1 g
same,KIDNEY_TOTAL,[1],2.1 g
same,LIVER,[1],12.5 g
same,ALP,[1],782.4 IU/L
same,ALT,[1],33.2 IU/L
same,AST,[1],62.6 IU/L
same,BUN,[1],19 mg/dL
same,CRE,[1],0.6 mg/dL
same,DBIL,[1],0.008 mg/dL
same,GLC,[1],194.2 mg/dL
same,K,[1],5 meq/L
same,Na,[1],138.7 meq/L
same,PL,[1],164.2 mg/dL
same,RALB,[1],4.1 g/dL
same,TBIL,[1],0.4 mg/dL
same,TC,[1],90.8 mg/dL
same,TG,[1],99.2 mg/dL
same,TP,[1],6 g/dL
same,gamma-GTP,[1],0.8 IU/L
same,TERMINAL_BW,[2],272.1 g
same,TERMINAL_BW,[3],328 g
same,TERMINAL_BW,[4],403 g
same,APTT,[2],16.8 s
same,Bas,[2],0%
same,Eos,[2],1%
same,Fbg,[2],230.6 mg/dL
same,Hb,[2],14.3 g/dL
same,Ht,[2],43.5%
same,Lym,[2],77.8%
same,MCH,[2],21 pg
same,MCHC,[2],32.9%
same,MCV,[2],63.8 fL
same,Mono,[2],5.8%
same,Neu,[2],15.4%
same,PT,[2],11.4 s
same,Plat,[2],107.7 x10_4/uL
same,RBC,[2],682.8 x10_4/ul
same,Ret,[2],5.5%
same,WBC,[2],100.7 x10_2/uL
same,APTT,[3],16.7 s
same,Bas,[3],0%
same,Eos,[3],0.6%
same,Fbg,[3],228.6 mg/dL
same,Hb,[3],14.6 g/dL
same,Ht,[3],43.7%
same,Lym,[3],82.6%
same,MCH,[3],21.1 pg
same,MCHC,[3],33.4%
same,MCV,[3],63 fL
same,Mono,[3],3.8%
same,Neu,[3],12.8%
same,PT,[3],11.8 s
same,Plat,[3],111.6 x10_4/uL
same,RBC,[3],694.4 x10_4/ul
same,Ret,[3],4.9%
same,WBC,[3],142.4 x10_2/uL
same,APTT,[4],17.8 s
same,Bas,[4],0%
same,Eos,[4],1.2%
same,Fbg,[4],236.6 mg/dL
same,Hb,[4],15.2 g/dL
same,Ht,[4],45.7%
same,Lym,[4],80.4%
same,MCH,[4],19 pg
same,MCHC,[4],33.3%
same,MCV,[4],57 fL
same,Mono,[4],3.6%
same,Neu,[4],14.4%
same,PT,[4],12 s
same,Plat,[4],106.3 x10_4/uL
same,RBC,[4],802.8 x10_4/ul
same,Ret,[4],2.6%
same,WBC,[4],121 x10_2/uL
same,KIDNEY_L,[2],1.2 g
same,KIDNEY_R,[2],1.2 g
same,KIDNEY_TOTAL,[2],2.3 g
same,KIDNEY_L,[3],1.3 g
same,KIDNEY_R,[3],1.4 g
same,KIDNEY_TOTAL,[3],2.7 g
same,KIDNEY_L,[4],1.4 g
same,KIDNEY_R,[4],1.5 g
same,KIDNEY_TOTAL,[4],2.9 g
same,LIVER,[2],13.9 g
same,LIVER,[3],15.5 g
same,LIVER,[4],17.7 g
same,ALP,[2],755 IU/L
same,ALT,[2],36.8 IU/L
same,AST,[2],57.8 IU/L
same,BUN,[2],16.4 mg/dL
same,CRE,[2],0.6 mg/dL
same,DBIL,[2],0.01 mg/dL
same,GLC,[2],199 mg/dL
same,K,[2],4.5 meq/L
same,Na,[2],138.9 meq/L
same,PL,[2],155.2 mg/dL
same,RALB,[2],4.2 g/dL
same,TBIL,[2],0.3 mg/dL
same,TC,[2],81.8 mg/dL
same,TG,[2],86.4 mg/dL
same,TP,[2],6.2 g/dL
same,gamma-GTP,[2],1.2 IU/L
same,ALP,[3],627.6 IU/L
same,ALT,[3],32.8 IU/L
same,AST,[3],59.2 IU/L
same,BUN,[3],16 mg/dL
same,CRE,[3],0.6 mg/dL
same,DBIL,[3],0.006 mg/dL
same,GLC,[3],194.8 mg/dL
same,K,[3],4.4 meq/L
same,Na,[3],141.1 meq/L
same,PL,[3],144.8 mg/dL
same,RALB,[3],4 g/dL
same,TBIL,[3],0.4 mg/dL
same,TC,[3],74.6 mg/dL
same,TG,[3],87.4 mg/dL
same,TP,[3],6.1 g/dL
same,gamma-GTP,[3],1 IU/L
same,ALP,[4],410.4 IU/L
same,ALT,[4],32.2 IU/L
same,AST,[4],56.8 IU/L
same,BUN,[4],20.2 mg/dL
same,CRE,[4],0.6 mg/dL
same,DBIL,[4],0.012 mg/dL
same,GLC,[4],192.4 mg/dL
same,K,[4],4.2 meq/L
same,Na,[4],139.9 meq/L
same,PL,[4],151.4 mg/dL
same,RALB,[4],4.1 g/dL
same,TBIL,[4],0.3 mg/dL
same,TC,[4],74 mg/dL
same,TG,[4],136 mg/dL
same,TP,[4],6.7 g/dL
same,gamma-GTP,[4],0.4 IU/L
same,TERMINAL_BW,[5],237.9 g
same,APTT,[5],16.2 s
same,Bas,[5],0%
same,Eos,[5],1%
same,Fbg,[5],230.6 mg/dL
same,Hb,[5],14 g/dL
same,Ht,[5],42%
same,Lym,[5],78.8%
same,MCH,[5],21.5 pg
same,MCHC,[5],33.3%
same,MCV,[5],64.8 fL
same,Mono,[5],6.2%
same,Neu,[5],14.2%
same,PT,[5],11.6 s
same,Plat,[5],103.3 x10_4/uL
same,RBC,[5],648.4 x10_4/ul
same,Ret,[5],5.6%
same,WBC,[5],126.1 x10_2/uL
same,KIDNEY_L,[5],1.1 g
same,KIDNEY_R,[5],1.1 g
same,KIDNEY_TOTAL,[5],2.1 g
same,LIVER,[5],12.6 g
same,ALP,[5],891.8 IU/L
same,ALT,[5],47.4 IU/L
same,AST,[5],68.8 IU/L
same,BUN,[5],17.2 mg/dL
same,CRE,[5],0.6 mg/dL
same,DBIL,[5],0.024 mg/dL
same,GLC,[5],201.4 mg/dL
same,K,[5],4.8 meq/L
same,Na,[5],138.9 meq/L
same,PL,[5],173.6 mg/dL
same,RALB,[5],3.8 g/dL
same,TBIL,[5],0.3 mg/dL
same,TC,[5],113.4 mg/dL
same,TG,[5],59.8 mg/dL
same,TP,[5],5.9 g/dL
same,gamma-GTP,[5],1.8 IU/L
same,TERMINAL_BW,[6],268.4 g
same,TERMINAL_BW,[7],309.4 g
same,TERMINAL_BW,[8],402.6 g
same,APTT,[6],17.2 s
same,Bas,[6],0%
same,Eos,[6],1.2%
same,Fbg,[6],211.8 mg/dL
same,Hb,[6],13.7 g/dL
same,Ht,[6],40.8%
same,Lym,[6],76.6%
same,MCH,[6],21.6 pg
same,MCHC,[6],33.5%
same,MCV,[6],64.6 fL
same,Mono,[6],6%
same,Neu,[6],16.6%
same,PT,[6],11.6 s
same,Plat,[6],128 x10_4/uL
same,RBC,[6],633.8 x10_4/ul
same,Ret,[6],5.9%
same,WBC,[6],144 x10_2/uL
same,APTT,[7],18.5 s
same,Bas,[7],0%
same,Eos,[7],0.8%
same,Fbg,[7],245.8 mg/dL
same,Hb,[7],14.6 g/dL
same,Ht,[7],43.8%
same,Lym,[7],79%
same,MCH,[7],20.6 pg
same,MCHC,[7],33.4%
same,MCV,[7],61.8 fL
same,Mono,[7],4.6%
same,Neu,[7],15.6%
same,PT,[7],11.9 s
same,Plat,[7],106.7 x10_4/uL
same,RBC,[7],709.4 x10_4/ul
same,Ret,[7],4.3%
same,WBC,[7],144 x10_2/uL
same,APTT,[8],20.2 s
same,Bas,[8],0%
same,Eos,[8],1%
same,Fbg,[8],252 mg/dL
same,Hb,[8],15.4 g/dL
same,Ht,[8],45.8%
same,Lym,[8],81.4%
same,MCH,[8],19.7 pg
same,MCHC,[8],33.6%
same,MCV,[8],58.5 fL
same,Mono,[8],4.2%
same,Neu,[8],13.4%
same,PT,[8],12.2 s
same,Plat,[8],109.3 x10_4/uL
same,RBC,[8],782.2 x10_4/ul
same,Ret,[8],3%
same,WBC,[8],179.4 x10_2/uL
same,KIDNEY_L,[6],1.2 g
same,KIDNEY_R,[6],1.2 g
same,KIDNEY_TOTAL,[6],2.4 g
same,KIDNEY_L,[7],1.3 g
same,KIDNEY_R,[7],1.4 g
same,KIDNEY_TOTAL,[7],2.7 g
same,KIDNEY_L,[8],1.6 g
same,KIDNEY_R,[8],1.6 g
same,KIDNEY_TOTAL,[8],3.2 g
same,LIVER,[6],14.5 g
same,LIVER,[7],16.6 g
same,LIVER,[8],19.7 g
same,ALP,[6],732.8 IU/L
same,ALT,[6],35.4 IU/L
same,AST,[6],64.8 IU/L
same,BUN,[6],17.2 mg/dL
same,CRE,[6],0.6 mg/dL
same,DBIL,[6],0.008 mg/dL
same,GLC,[6],194.4 mg/dL
same,K,[6],4.5 meq/L
same,Na,[6],139.1 meq/L
same,PL,[6],133.4 mg/dL
same,RALB,[6],3.9 g/dL
same,TBIL,[6],0.3 mg/dL
same,TC,[6],78 mg/dL
same,TG,[6],35.4 mg/dL
same,TP,[6],6.1 g/dL
same,gamma-GTP,[6],1 IU/L
same,ALP,[7],735.2 IU/L
same,ALT,[7],37.8 IU/L
same,AST,[7],54.2 IU/L
same,BUN,[7],17.6 mg/dL
same,CRE,[7],0.6 mg/dL
same,DBIL,[7],0.01 mg/dL
same,GLC,[7],193.6 mg/dL
same,K,[7],4.6 meq/L
same,Na,[7],142 meq/L
same,PL,[7],145.4 mg/dL
same,RALB,[7],4.1 g/dL
same,TBIL,[7],0.2 mg/dL
same,TC,[7],78.8 mg/dL
same,TG,[7],48 mg/dL
same,TP,[7],6.4 g/dL
same,gamma-GTP,[7],1.6 IU/L
same,ALP,[8],448.2 IU/L
same,ALT,[8],35 IU/L
same,AST,[8],53.6 IU/L
same,BUN,[8],19 mg/dL
same,CRE,[8],0.6 mg/dL
same,DBIL,[8],0.012 mg/dL
same,GLC,[8],195.4 mg/dL
same,K,[8],4.1 meq/L
same,Na,[8],140.5 meq/L
same,PL,[8],135.4 mg/dL
same,RALB,[8],4.3 g/dL
same,TBIL,[8],0.3 mg/dL
same,TC,[8],73.4 mg/dL
same,TG,[8],48 mg/dL
same,TP,[8],6.8 g/dL
same,gamma-GTP,[8],0.8 IU/L
